Assay type in all cases: functional
One assay has as its system SK-N-SH. Nature of the assay: Cytotoxicity against human SK-N-SH cells assessed as growth inhibition after 3 days by MTT assay. To be noted: 72 h.
The test system of the next assay is HeLa. The experiment in a line: Cytotoxicity against human HeLa cells assessed as growth inhibition after 3 days by MTT assay. The conditions noted are these: 72 h.
For another assay, the system named is MCF7. Nature of the assay: Cytotoxicity against human MCF7 cells assessed as growth inhibition after 3 days by MTT assay. The conditions noted are these: MCF7, 72 h.
Another assay has as its system PC-3. Nature of the assay: Cytotoxicity against human PC3 cells assessed as growth inhibition after 3 days by MTT assay. To be noted: PC-3, 72 h.

As for `C[C@]12CCC(=O)N[C@@H]1CC[C@@H]1[C@@H]2CC[C@]2(C)O[C@H](n3cnc4c(Cl)nc(Cl)nc43)CC[C@@H]12`, the GI50 (in general, the concentration at which growth is held to half of that of the control) with SK-N-SH amounted to 34.2 µM; in the assay with HeLa it was 7.57 µM; in the assay on MCF7 it was 34.2 µM; with PC-3 it was 11.2 µM.

Turning to `C[C@]12CCC(=O)N[C@@H]1CC[C@@H]1[C@@H]2CC[C@]2(C)O[C@H](n3cnc4c(NCc5ccccc5)ncnc43)CC[C@@H]12`, the GI50 in the assay with SK-N-SH turned out to be 133 µM; with HeLa it was 129 µM; in the assay with MCF7, 136 µM; in the assay with PC-3 it was 20.6 µM.

On to `C[C@]12CCC(=O)N[C@@H]1CC[C@@H]1[C@@H]2CC[C@]2(C)O[C@H](n3cnc4c(Cl)ncnc43)CC[C@@H]12`, for which the GI50 in the assay on SK-N-SH was determined as 103 µM; with HeLa it was 17.7 µM; in the assay on MCF7 it was 20.9 µM; in the assay with PC-3 it was 3.25 µM.

As for `C[C@]12CCC(=O)N[C@@H]1CC[C@@H]1[C@@H]2CC[C@]2(C)O[C@H](n3cnc4c(Cl)nc(F)nc43)CC[C@@H]12`, the GI50 with SK-N-SH came out at 10.7 µM; with HeLa it was 13.3 µM; in the assay with MCF7 it was 16.7 µM; in the assay with PC-3 it was 3.76 µM.

As to `CC(=O)O[C@H]1C(=O)[C@@]2(C)[C@H]([C@H](OC(=O)c3ccccc3)[C@]3(O)C[C@H](OC(=O)[C@H](O)[C@@H](NC(=O)c4ccccc4)c4ccccc4)C(C)=C1C3(C)C)[C@]1(OC(C)=O)CO[C@@H]1C[C@@H]2O` [PACLITAXEL], the GI50 is 2.19 µM in the assay on SK-N-SH, 2.82 µM in the assay with HeLa, 1.07 µM with MCF7 and 1.46 µM in the assay on PC-3.

(Values after ChEMBL document CHEMBL1833849, “Novel 4-azasteroidal N-glycoside analogues bearing sugar-like D ring: synthesis and anticancer activities” (2011).)
